# Reference: patent US10576147B2, “Muramyl peptide derivative compound, synthesis and uses thereof” (BHARAT BIOTECH INTERNATIONAL LIMITED, priority 2015, dated 2020)
# Experiments:
# [1] = system: BALB/c mice; assay: OVA-specific IgG after immunization (indirect ELISA); format: in vivo; conditions: s.c. Days 1 and 15
# Procedure: Male BALB/c mice were immunized subcutaneously with OVA 100 μg alone or with OVA 100 μg dissolved in saline containing analogues (7.5, 15 or 30 μg) on Days 1 and 15. Sera were collected 2 weeks after the last immunization. OVA-specific IgG antibodies in the sera were measured by an Indirect ELISA. The values are presented as log 2 titre.
# [2] = system: Peripheral blood mononuclear cells (PBMCs); assay: In-vitro pyrogen test (IL-1β, IL-6, TNF-α by ELISA); format: cell-based
# Procedure: Generally, pyrogenicity of any molecule can be measured by the over production of pro-inflammatory cytokines IL-1β, IL-6, and TNFα, following an activation of monocytes in-vitro, which inturn, could be an indicative of increased reactogenicity in-vivo.
# Frozen Peripheral blood mononuclear cells (PBMCs) were revived and plated (0.5×10^6 cells/ml, 100 μl) in 96 well round bottom cell culture plate. Cells were supplemented with RPMI 1640 medium (Gibco Laboratories, Grand Island, N.Y.) containing fetal bovine serum (10%), glutamine (2 mM), and pencillin-streptomycin. Cells further stimulated with LPS (10 ng/ml) or endotoxin (1 EU/ml, 0.5 EU/ml, 0.25 EU/ml, 0.125 EU/ml) or MDP-MN (10 or 100 μg/ml). Cells stimulated with LPS or endotoxin was incubated for 4 hrs where as cells stimulated with MDP derivatives of the present invention kept for incubation in humidified CO2 chamber at 37° C. for 24 hrs. After stimulation, cell culture supernatant was collected and cytokines (such as IL-1β, IL-6 or TNF-α) were measured by ELISA. Concentrations each cytokine produced by PBMCs in the presence of reference standard endotoxin at 0.5 EU/ml was measured in triplicates. Threshold levels were calculated for each cytokine, using the cytokine levels produced by the reference standard endotoxin at 0.5 EU/ml (Marina et al., Vaccine 30 (2012) 4859-4865).
# To determine Interleukin 1β, Enzyme Linked Immunosorbent Assay (ELISA) was performed according to the instruction manual (ebioscience, cat#88-7010). Briefly, capture antibody (cat#14-7018-67, eBioscience) was first diluted 1:250 using coating buffer and added 100 μL to each well in 96-well microplate. Plates were incubated overnight at 2-8° C. Coated plates were then washed with wash buffer (PBST). After washing, these plates were blocked using 1× assay diluent for 1 hr at room temperature followed by washing with PBST. A series of 2 fold dilutions were made from top standard ranging from 4 to 500 pg/mL, to make the standard curve. Similarly, 4 fold dilutions (1:4, 1:16 & 1:64) of cell supernatant obtained from PBMCs stimulation with MDP-MN were prepared. Aliquot (100 μL) of diluted standards or cell supernatants were added to well in duplicates and the plate was incubated at room temperature for 2 hrs. After washing the plate, 100 μL/well of detection antibody (cat#33-7016-67) diluted in 1× Assay diluent was added and incubated at room temperature for 1 hr. Later, 100 μL/well of Avidin-HRP* diluted in 1× Assay diluent was added and incubated at room temperature for 30 minutes. Finally, after washes, 100 μL of substrate solution was added to each well and incubated at RT for 15 minutes. Reaction was stopped by the addition of 50 μL of 2N H2SO4 to each well and the plate was read at 450 nm. […]
# [3] = system: mouse; assay: rPvRII specific IgG endpoint titer; format: in vivo; conditions: MDP-MN 10 μg/mouse
# [4] = target: T1, human NOD2 (Homo sapiens, UniProt Q9HC29); assay: NOD2 specific reporter assay (SEAP); format: cell-based
# T1 construct: host or cells: HEK 293 (HEK-Blue Human NOD2 reporter cells)
# T1 sequence (Q9HC29 whole entry): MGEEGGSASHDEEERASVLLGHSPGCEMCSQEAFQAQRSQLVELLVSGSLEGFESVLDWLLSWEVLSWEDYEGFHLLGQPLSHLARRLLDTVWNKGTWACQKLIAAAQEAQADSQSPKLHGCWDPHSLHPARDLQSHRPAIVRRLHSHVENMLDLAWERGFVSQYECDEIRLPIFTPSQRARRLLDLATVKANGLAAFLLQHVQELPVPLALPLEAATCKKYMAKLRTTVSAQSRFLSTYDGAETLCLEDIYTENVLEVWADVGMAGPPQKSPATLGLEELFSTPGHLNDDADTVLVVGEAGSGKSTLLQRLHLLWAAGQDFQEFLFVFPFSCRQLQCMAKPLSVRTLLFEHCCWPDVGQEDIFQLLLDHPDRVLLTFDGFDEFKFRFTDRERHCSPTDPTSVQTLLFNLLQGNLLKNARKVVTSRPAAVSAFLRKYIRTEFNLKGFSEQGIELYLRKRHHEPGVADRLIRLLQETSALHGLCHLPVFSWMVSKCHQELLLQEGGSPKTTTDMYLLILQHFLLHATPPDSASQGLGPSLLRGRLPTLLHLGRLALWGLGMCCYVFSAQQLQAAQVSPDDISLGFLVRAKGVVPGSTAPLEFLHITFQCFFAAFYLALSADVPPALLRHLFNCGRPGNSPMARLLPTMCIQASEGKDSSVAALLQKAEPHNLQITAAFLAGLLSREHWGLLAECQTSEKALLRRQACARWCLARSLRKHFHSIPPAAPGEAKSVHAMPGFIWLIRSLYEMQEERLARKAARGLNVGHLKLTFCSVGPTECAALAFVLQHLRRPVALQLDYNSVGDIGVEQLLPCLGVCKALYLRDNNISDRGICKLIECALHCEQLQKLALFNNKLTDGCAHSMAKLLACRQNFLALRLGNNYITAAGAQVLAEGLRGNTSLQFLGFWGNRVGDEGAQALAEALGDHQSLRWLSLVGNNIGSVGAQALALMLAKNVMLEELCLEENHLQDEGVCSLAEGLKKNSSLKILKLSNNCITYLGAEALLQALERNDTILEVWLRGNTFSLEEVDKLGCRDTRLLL
# Procedure: Muramyl dipeptide molecules have the ability to bind to NOD2 receptors that are present on […] the immune cells, so as to stimulate immune response. NOD2 (Nucleotide oligomerization domain) receptor is an intracellular pattern recognition receptor (PRRs) recognizes muramyl dipeptide derivatives and stimulates cascade of signalling pathways to induce immune response. […] These cells were prepared by co-transfection of human NOD2 gene and codon-optimized SEAP (secreted embryonic alkaline phosphatase) reporter gene into HEK 293 cells. Upon stimulation of cells with muramyl dipeptide derivative, NFkB gets activated, which intum secrets SEAP and it was measured in cell supernatant. Experimental details of this in-vitro assay are given as example 2.1.
# HEK—Blue Human NOD2 reporter cells (5×10^4/well) were plated and cultured overnight in a humidified CO2 incubator at 37° C. […] Supernatant was collected and treated with Quanti blue detection reagent at 37° C. for 15-30 min. Absorbance was read at 630 nm. Dose response curve generated by plotting concentration of adjuvant on X-axis and % response on the Y-axis is as shown in FIG. 1. To generate dose response curve, highest absorbance shown at tested concentration was taken as 100% response and the least absorbance was taken as 0% response. Effective concentration at 50% (EC50) response was determined from the dose response curve.
smiles,measurement,setting,value
"C[C@H](NC(=O)[C@@H](C)O[C@H]1[C@H](O)[C@@H](CO)OC(O)[C@@H]1NC(=O)[C@H](O)CO)C(=O)N[C@H](CCC(=O)O)C(N)=O (stereo partly drawn) [MDP-MN, (4R)-5-amino-4-((2S)-2-((2R)-2-(((3R,4R,5S,6R)-3-((2,3-dihydroxypropanamido))-2,5-dihydroxy-6-(hydroxymethyl)tetrahydro-2H-pyran-4-yl)oxy)propanamido)propanamido)-5-oxopentanoic acid]",Log(2) IgG Antibody Titre,[1]; adjuvant 7.5 μg per mouse with OVA 100 μg,nearly equal antibody titer
same,Log(2) IgG Antibody Titre,[1]; adjuvant 15 μg per mouse with OVA 100 μg,highest serum IgG responses
same,Log(2) IgG Antibody Titre,[1]; adjuvant 30 μg per mouse with OVA 100 μg,highest serum IgG responses
same,IL-1β level vs threshold,"[2]; MDP-MN at both 10 & 100 μg/ml, 24 hrs, (endotoxin 0.5 EU/ml)",within the threshold value
same,TNF-α level vs threshold,"[2]; MDP-MN at both 10 & 100 μg/ml, 24 hrs, threshold 753 μg/ml",within the threshold value
same,IL-6 level vs threshold,"[2]; MDP-MN at both 10 & 100 μg/ml, 24 hrs, threshold 3110 μg/ml",within the threshold value
same,pyrogenicity,[2]; in-vitro pyrogen test,doesn't cause any pyrogenicity
same,increase of antibody titer vs rPvRII alone,[3],4 fold
same,EC50,"[4]; HEK-Blue Human NOD2 reporter cells, SEAP absorbance 630 nm, 24-72 hrs, read-out: EC50 (half maximal response) (converted)",2490 nM
same,% response,"[4]; at 0.01 μg/ml, normalized to least absorbance",0%
same,% response,"[4]; at 10 μg/ml (plateau), normalized to highest absorbance",100%
